Reference: publication PMC5300155, “Biochemical and biophysical investigations of the interaction between human glucokinase and pro-apoptotic BAD” (PLoS ONE, 2017)

Target: T1, human pancreatic GCK (Homo sapiens, UniProt P35557)
T1 construct: hexahistidine (N); made in house; host or cells: glucokinase auxotroph BM5340(DE3)
T1 sequence (P35557 1-465): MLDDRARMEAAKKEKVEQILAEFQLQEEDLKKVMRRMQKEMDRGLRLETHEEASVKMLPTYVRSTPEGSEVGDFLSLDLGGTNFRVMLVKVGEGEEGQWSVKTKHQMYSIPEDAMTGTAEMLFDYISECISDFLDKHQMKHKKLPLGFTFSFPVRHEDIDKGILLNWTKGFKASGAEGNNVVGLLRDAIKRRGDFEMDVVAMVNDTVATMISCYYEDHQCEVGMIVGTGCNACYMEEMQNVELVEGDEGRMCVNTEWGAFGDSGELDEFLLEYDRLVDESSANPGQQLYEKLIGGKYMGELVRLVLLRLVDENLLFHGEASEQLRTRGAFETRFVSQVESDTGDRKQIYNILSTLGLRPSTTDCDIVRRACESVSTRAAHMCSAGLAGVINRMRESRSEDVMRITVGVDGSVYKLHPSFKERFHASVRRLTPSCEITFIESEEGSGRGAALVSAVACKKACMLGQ
Assay: Isothermal titration calorimetry with GCK
Format: binding
Conditions: peptide up to 50 μM into GCK (10 μM), presence and absence of 0.2 M glucose, potassium phosphate 25 mM, DMSO 5%, 25°C
Experimental: Recombinant human pancreatic GCK containing an N-terminal hexahistidine tag was produced in the glucokinase auxotroph BM5340(DE3) and purified using a previously described procedure. TEV protease was expressed as a GST-fusion protein from a pGEX plasmid encoding the S219V variant, provided by David Waugh (Addgene plasmid 8827). Expression was induced with IPTG (1 mM) for 4 h at 30°C. Cell pellets were resuspended in Tris buffer (50 mM, pH 8.0) containing NaCl (100 mM), glycerol (10% v/v), benzamidine (1 mM) and dithiothreitol (10 mM) and lysed via French Press. Polyethyleneimine (0.1%) was added to the lysate and protein was purified on a glutathione-affinity column (GSTrap, GE Sciences). TEV protease was flash frozen and stored at -80°C for up to 1 month.
Isothermal titration calorimetry was performed at 25°C using a MicroCal VP-ITC (GE Healthcare) instrument. Bcl-xL (100 μM) in BAD buffer (0.1 M Tris, 0.1 M KCl, 0.5 M arginine, 2.5 mM CHAPS, 5 mM TCEP, 10% glycerol, pH 8.5) was titrated into the calorimeter cell containing size-exclusion chromatography purified BAD-GST (10–18 μM) in 4 μL injections. A 21-residue phosphorylated peptide containing the BH3 domain of BAD was synthesized and purified to >95% by Peptide2.0 (pBH3 = NLWAAQRYGRELRRM(p)SDKFVD). The peptide (300 μM) in potassium phosphate buffer (25 mM) containing KCl (25 mM), TCEP (4 mM) and DMSO (5%) with and without glucose (200 mM) was titrated into the cell containing GCK (10 μM) previously dialyzed against the same buffer. GCK (100 μM) in BAD buffer was titrated into the cell containing S118D BAD-GST (10–15 μM) in 13 μL injections. Data were analyzed using Origin software.

## NLWAAQRYGRELRRM(p)SDKFVD [pBH3, 21-residue phosphorylated peptide containing the BH3 domain of BAD]
  Heat change on addition to GCK (ITC): No detectable heat change
Listed as phosphorylated BH3 peptide
  Heat change on addition to GCK (ITC): do not indicate an interaction
